According to patent US20250059174A1, “Pharmaceutical Compounds and Compositions as C-Kit Kinase Inhibitors” (Enanta Pharmaceuticals, Inc., priority 2023, published 2025):

Tests used:
[1] = molecular target: Recombinant human c-KIT kinase (Homo sapiens (Human), UniProt P10721); test: c-KIT kinase chemiluminescence assay (ADP-Glo); assay type: biochemical; details: ATP 50 μM
Method in brief: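 ADP formed by c-KIT on polyEY over 2 h at RT (after 30 min enzyme preincubation; Tris pH 7.5, MgCl2, BSA, DTT buffer) was detected by ADP-Glo luminescence. IC50 and Hill slope were fitted to control-normalized activity across compound concentrations.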

M-07e cells = test: M-07e cellular assay (SCF-mediated cell proliferation); assay type: cell-based; details: Homo sapiens, 72 hours, CellTiter Glo
Method in brief: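 EC50 values reflect inhibition of SCF-driven proliferation, with SCF at EC90 and a 72 h compound exposure, measured as CellTiter Glo luminescence. Growth is scaled between no-SCF (0%) and untreated (100%) wells.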

Sequence of Recombinant human c-KIT kinase (P10721 26-976): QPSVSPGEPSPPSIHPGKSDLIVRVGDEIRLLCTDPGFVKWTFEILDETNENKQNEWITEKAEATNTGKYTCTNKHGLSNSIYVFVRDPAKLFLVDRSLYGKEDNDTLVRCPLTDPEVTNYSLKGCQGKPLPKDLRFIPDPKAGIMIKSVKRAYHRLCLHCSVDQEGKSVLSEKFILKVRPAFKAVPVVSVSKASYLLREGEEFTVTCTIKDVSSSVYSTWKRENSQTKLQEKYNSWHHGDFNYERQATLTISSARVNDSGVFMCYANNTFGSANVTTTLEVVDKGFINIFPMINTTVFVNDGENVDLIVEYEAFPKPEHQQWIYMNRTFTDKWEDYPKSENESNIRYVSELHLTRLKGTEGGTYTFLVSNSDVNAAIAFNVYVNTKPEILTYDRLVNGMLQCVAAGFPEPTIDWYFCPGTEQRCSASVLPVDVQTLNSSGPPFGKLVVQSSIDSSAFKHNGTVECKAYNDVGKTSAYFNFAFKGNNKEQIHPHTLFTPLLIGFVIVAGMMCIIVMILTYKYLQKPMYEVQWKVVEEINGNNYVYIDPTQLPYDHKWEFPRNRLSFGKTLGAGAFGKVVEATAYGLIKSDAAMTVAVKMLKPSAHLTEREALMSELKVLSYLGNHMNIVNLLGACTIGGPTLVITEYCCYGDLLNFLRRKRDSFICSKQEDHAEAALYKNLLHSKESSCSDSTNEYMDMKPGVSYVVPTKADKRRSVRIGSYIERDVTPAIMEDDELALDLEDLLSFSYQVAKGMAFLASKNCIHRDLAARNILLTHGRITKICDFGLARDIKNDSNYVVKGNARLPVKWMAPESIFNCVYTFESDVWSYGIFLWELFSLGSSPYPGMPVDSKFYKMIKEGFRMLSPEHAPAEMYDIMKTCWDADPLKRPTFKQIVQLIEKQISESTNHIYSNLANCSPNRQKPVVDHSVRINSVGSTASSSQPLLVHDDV

SMILES	IC50 [1]	EC50 (M-07e cells)
CO[C@H]1C[C@@H](c2nc(-c3ccc(C)c(NC(=O)c4cnn5ccc(N6CC7(COC7)C6)cc45)c3)no2)C1 [Example 273]	100 to 1000 nM	< 100 nM
CO[C@H]1C[C@H](c2nc(-c3ccc(C)c(NC(=O)c4cnn5ccc(N6CC7(COC7)C6)cc45)c3)no2)C1 [Example 274]	100 to 1000 nM	< 100 nM
Cc1ccc(-c2noc([C@H]3C[C@@H](OC(F)F)C3)n2)cc1NC(=O)c1cnn2cc(-c3cn(C(F)F)nn3)ccc12 [Example 275]	< 100 nM	< 100 nM
Cc1ccc(-c2noc([C@H]3C[C@H]3C(F)F)n2)cc1NC(=O)c1cnn2ccc(N3CC4(COC4)C3)cc12 [Example 276]	< 100 nM	< 100 nM
Cc1ccc(-c2noc([C@@H]3C[C@@H]3C(F)F)n2)cc1NC(=O)c1cnn2ccc(N3CC4(COC4)C3)cc12 [Example 277]	< 100 nM	< 100 nM
Cc1ccc(-c2noc([C@H]3C[C@@H]3C(F)F)n2)cc1NC(=O)c1cnn2ccc(N3CC4(COC4)C3)cc12 [Example 278]	< 100 nM	< 100 nM
Cc1ccc(-c2noc([C@@H]3C[C@@H]4[C@H](C3)C4(F)F)n2)cc1NC(=O)c1cnn2ccc(N3CC4(COC4)C3)cc12 [Example 279]	< 100 nM	< 100 nM
Cc1ccc(-c2noc([C@H]3C[C@@H]4[C@H](C3)C4(F)F)n2)cc1NC(=O)c1cnn2ccc(N3CC4(COC4)C3)cc12 [Example 280]	< 100 nM	< 100 nM
Cc1ccc(-c2noc([C@@H]3C[C@H]3C(F)F)n2)cc1NC(=O)c1cnn2ccc(N3CC4(COC4)C3)cc12 [Example 281-1]	< 100 nM	< 100 nM
Cc1ccc(-c2noc(C3CC4(C3)CC(F)(F)C4)n2)cc1NC(=O)c1cnn2ccc(N3CC4(COC4)C3)cc12 [Example 281-2]	< 100 nM	< 100 nM
[2H]C([2H])([2H])c1ccc(-c2noc([C@H]3C[C@@H]3F)n2)cc1NC(=O)c1cnn2ccc(N3CC4(COC4)C3)cc12 [Example 281-3]	< 100 nM	< 100 nM
[2H]C([2H])([2H])c1ccc(-c2noc([C@H]3C[C@@H](OC(F)F)C3)n2)cc1NC(=O)c1cnn2ccc(N3CC4(COC4)C3)cc12 [Example 281-4]	< 100 nM	< 100 nM
[2H]C([2H])([2H])c1ccc(-c2noc([C@H]3C[C@@H]3C(F)F)n2)cc1NC(=O)c1cnn2ccc(N3CC4(COC4)C3)cc12 [Example 281-5]	< 100 nM	< 100 nM
Cc1ccc(-c2noc(C34COC(C)(C3)C4)n2)cc1NC(=O)c1cnn2ccc(N3CC4(COC4)C3)cc12 [Example 281-6]	100 to 1000 nM	< 100 nM
Cc1ccc(-c2noc([C@H]3CC3(F)F)n2)cc1NC(=O)c1cnn2ccc(N3CC4(COC4)C3)cc12 [Example 281-7]	100 to 1000 nM	< 100 nM
Cc1ccc(-c2noc(C3CN(CC(F)(F)F)C3)n2)cc1NC(=O)c1cnn2ccc(N3CC4(COC4)C3)cc12 [Example 281-8]	< 100 nM	< 100 nM
Cc1ncc(-c2noc([C@H]3CN(CC(F)(F)F)[C@@H]3C)n2)cc1NC(=O)c1cnn2ccc(N3CC4(C3)CC(O)(C(F)F)C4)cc12 [Example 281-9]	100 to 1000 nM	100 to 1000 nM
Cc1ncc(-c2noc([C@H]3CN(C(=O)C(C)(F)F)[C@@H]3C)n2)cc1NC(=O)c1cnn2ccc(N3CC4(C3)CC(O)(C(F)F)C4)cc12 [Example 281-10]	100 to 1000 nM	100 to 1000 nM
Cc1ncc(-c2noc([C@@H]3CN(C(=O)C4(F)CC4)[C@H]3C)n2)cc1NC(=O)c1cnn2ccc(N3CC4(C3)CC(O)(C(F)F)C4)cc12 [Example 281-11]	100 to 1000 nM	100 to 1000 nM
Cc1ncc(-c2noc([C@@H]3CN(CC(F)(F)F)[C@H]3C)n2)cc1NC(=O)c1cnn2ccc(N3CC4(C3)CC(O)(C(F)F)C4)cc12 [Example 281-12]	< 100 nM	100 to 1000 nM
Cc1ncc(-c2noc([C@@H]3CN(C(=O)C(C)(F)F)[C@H]3C)n2)cc1NC(=O)c1cnn2ccc(N3CC4(C3)CC(O)(C(F)F)C4)cc12 [Example 281-13]	100 to 1000 nM	100 to 1000 nM
COC(=O)N1C[C@H](c2nc(-c3cnc(C)c(NC(=O)c4cnn5ccc(N6CC7(C6)CC(O)(C(F)F)C7)cc45)c3)no2)[C@H]1C [Example 281-14]	100 to 1000 nM	100 to 1000 nM

SMILES	IC50 [1]	EC50 (M-07e cells)
Cc1ncc(-c2noc([C@H]3CN(C(=O)C4(F)CC4)[C@@H]3C)n2)cc1NC(=O)c1cnn2ccc(N3CC4(C3)CC(O)(C(F)F)C4)cc12 [Example 281-15]	100 to 1000 nM	100 to 1000 nM
Cc1ncc(-c2noc([C@H]3CC34CC4)n2)cc1NC(=O)c1cnn2ccc(N3CC4(C3)CC(O)(C(F)F)C4)cc12 [Example 281-16]	< 100 nM	< 100 nM
COC(=O)N1C[C@@H](c2nc(-c3cnc(C)c(NC(=O)c4cnn5ccc(N6CC7(C6)CC(O)(C(F)F)C7)cc45)c3)no2)[C@@H]1C [Example 281-17]	100 to 1000 nM	< 100 nM
Cc1cc(F)c(-c2noc([C@H]3C[C@@H]3F)n2)cc1NC(=O)c1cnn2ccc(N3CC4(C3)CC(O)(C(F)F)C4)cc12 [Example 281-18]	< 100 nM	< 100 nM
CC(=O)N1CC(c2nc(-c3ccc(C)c(NC(=O)c4cnn5ccc(N6CC7(COC7)C6)cc45)c3)no2)C1 [Example 281-19]	100 to 1000 nM	> 1000 nM
Cc1ccc(-c2noc([C@H]3C[C@@H](OC(F)F)C3)n2)cc1NC(=O)c1cnn2ccc(N3CC4(C3)CC(O)(C(F)F)C4)cc12 [Example 281-20]	< 100 nM	< 100 nM
Cc1ccc(-c2noc([C@H]3C[C@@H](OC(F)(F)F)C3)n2)cc1NC(=O)c1cnn2ccc(N3CC4(C3)CC(O)(C(F)F)C4)cc12 [Example 281-21]	< 100 nM	< 100 nM
Cc1ccc(-c2noc([C@H]3C[C@@H](OC(F)F)C3)n2)cc1NC(=O)c1cnn2ccc(N3CC4(C3)CC(O)(C(F)(F)F)C4)cc12 [Example 281-22]	< 100 nM	< 100 nM
Cc1ccc(-c2noc([C@H]3C[C@@H](OC(F)(F)F)C3)n2)cc1NC(=O)c1cnn2ccc(N3CC4(C3)CC(O)(C(F)(F)F)C4)cc12 [Example 281-23]	< 100 nM	< 100 nM
Cc1cc(F)c(-c2noc([C@H]3C[C@@H]3F)n2)cc1NC(=O)c1cnn2ccc(N3CC4(C3)CN(S(C)(=O)=O)C4)cc12 [Example 281-24]	< 100 nM	100 to 1000 nM
Cc1ccc(-c2noc([C@H]3C[C@@H](C(F)(F)F)C3)n2)cc1NC(=O)c1cnn2ccc(N3CC4(COC4)C3)cc12 [Example 281-25]	< 100 nM	< 100 nM
O=C(Nc1cc(-c2noc([C@H]3C[C@@H]3F)n2)ccc1Cl)c1cnn2ccc(N3CC4(C3)CC(O)(C(F)F)C4)cc12 [Example 281-26]	100 to 1000 nM	< 100 nM
O=C(Nc1cc(-c2noc([C@H]3C[C@@H](C(F)(F)F)C3)n2)ccc1Cl)c1cnn2ccc(N3CC4(C3)CC(O)(C(F)F)C4)cc12 [Example 281-27]	< 100 nM	< 100 nM
O=C(Nc1cc(-c2noc([C@H]3C[C@@H](OC(F)(F)F)C3)n2)ccc1Cl)c1cnn2ccc(N3CC4(C3)CC(O)(C(F)F)C4)cc12 [Example 281-28]	< 100 nM	< 100 nM
COC(=O)N1CC(Cc2nc(-c3ccc(C)c(NC(=O)c4cnn5ccc(N6CC7(COC7)C6)cc45)c3)no2)C1 [Example 281-29]	100 to 1000 nM	100 to 1000 nM
O=C(Nc1cc(-c2noc(C3CC(F)(F)C3)n2)ccc1Cl)c1cnn2ccc(N3CC4(C3)CC(O)(C(F)F)C4)cc12 [Example 281-30]	< 100 nM	< 100 nM
Cc1ccc(-c2noc([C@H]3C[C@](O)(C(F)(F)F)C3)n2)cc1NC(=O)c1cnn2ccc(N3CC4(COC4)C3)cc12 [Example 281-31]	< 100 nM	< 100 nM
Cc1ccc(-c2noc(C3CN(C(=O)[C@H]4C[C@@H]4F)C3)n2)cc1NC(=O)c1cnn2ccc(N3CC4(COC4)C3)cc12 [Example 281-32]	100 to 1000 nM	100 to 1000 nM
Cc1ccc(-c2noc(C3CN(C(=O)C4(F)CC4)C3)n2)cc1NC(=O)c1cnn2ccc(N3CC4(COC4)C3)cc12 [Example 281-33]	100 to 1000 nM	100 to 1000 nM
Cc1ccc(-c2noc(C3CN(C(=O)[C@H]4C[C@@H]4F)C3)n2)cc1NC(=O)c1cnn2ccc(N3CC4(C3)CC(O)(C(F)F)C4)cc12 [Example 281-34]	100 to 1000 nM	100 to 1000 nM
Cc1ccc(-c2noc(C3CN(C(=O)C4(F)CC4)C3)n2)cc1NC(=O)c1cnn2ccc(N3CC4(C3)CC(O)(C(F)F)C4)cc12 [Example 281-35]	< 100 nM	< 100 nM
